# Test results reported in US11884750B2, “Cationic cell penetrating peptides and the use thereof” (CELLTROY CO., LTD., priority 2021, dated 2024).
# Entries after “also recorded” stand apart in the source; their conditions may differ.
# What was measured:
# HDF cell line = assay: Cell penetration efficiency in skin cells (HDF); format: cell-based; conditions: 4 μM FITC-conjugated CPP, one hour
# Description: (§1) Subsequently, to confirm whether the CPPs according to the present invention show excellent cell permeability into different types of cells/tissues, various tissue-derived cells were treated with biologically active molecule-conjugated CPPs to compare its delivery capacity with TAT. As in the previous examples, each cell was aliquoted in a plate at an appropriate density, and cultured in a 10% FBS-added medium under a condition of 37° C. and 5% CO2 for 24 hours. Subsequently, the cells were treated with 4 μM each of FITC-conjugated CPP or FITC-conjugated TAT and incubated for one hour. After the completion of the incubation, the cells were transferred to a sterile tube using 0.25% trypsin and centrifuged to remove the medium. Afterward, the cells were washed with 500 μL of D-PBS twice to completely remove the medium, and finally, resuspended in 400 μL of D-PBS and intracellular fluorescence was measured by flow cytometry (FACSCanto II).
# HGB cell line = assay: Cell penetration efficiency in glioblastoma cells; format: cell-based, human; conditions: 4 μM FITC-conjugated CPP, one hour
# Description: as §1
# A-427 cell line = assay: Cell penetration efficiency using lung cells; format: cell-based; conditions: A-427 lung cells, 4 μM FITC-conjugated CPP, one hour
# Description: as §1
# HepG2 cell line = assay: Cell penetration efficiency using liver cells; format: cell-based; conditions: 4 μM FITC-conjugated CPP, one hour
# Description: as §1
# HaCAT cells = assay: Cell penetration efficiency in human epidermal (skin) cells, 4 μM, flow cytometry; format: cell-based; conditions: 4 μM FITC-conjugated CPP, one hour
# Description: The cell penetration efficiency of the cationic CPPs selected in Example 1 was evaluated using human epidermal cells. In further detail, HaCAT cells, which is a human epidermal cell line, were seeded in 24-well plates to have a cell density of 1×10^7 cells/well, and cultured in 10% FBS-added DMEM under conditions of 37° C. and 5% CO2 for 24 hours. Subsequently, the cells were treated 4 μM each of the FITC-conjugated CPP or FITC-conjugated TAT, and incubated for one hour. After the termination of the incubation, the cells were transferred to a sterile tube using 0.25% trypsin, and the medium was removed through centrifugation. Afterward, the cells were washed with 500 μL of D-PBS twice to completely remove the medium, and finally, resuspended in 400 μL of D-PBS and intracellular fluorescence was measured by flow cytometry (FACSCanto II).
# (§2) To evaluate the cell penetration efficiency of the additionally selected cationic CPPs, an experiment was conducted using human epidermal cells or human neuroblastoma cells. In further detail, HaCAT cells, which is a human epidermal cell line, or SH-SYSY cells, which is a human neuroblastoma cell line, were seeded in 24-well plates to have a cell density of 1×10^7 cells/well and cultured in 10% FBS-added DMEM under conditions of 37° C. and 5% CO2 for 24 hours. In addition, the cells were treated with 4 μM each of FITC-conjugated peptides and FITC-conjugated TAT for one hour. After the completion of the culture, the cells were transferred to a sterile tube using 0.25% trypsin and centrifuged to remove the medium. Afterward, the cells were washed with 500 μL of D-PBS twice to completely remove the medium, and finally, resuspended in 400 μL of D-PBS and intracellular fluorescence was measured by flow cytometry (FACSCanto II).
# as §1
# SNU-46 cell line = assay: Cell penetration efficiency using laryngeal cells; format: cell-based; conditions: SNU-46 laryngeal cells, 4 μM FITC-conjugated CPP, one hour
# Description: as §1
# HT1080 cell line = assay: Cell penetration efficiency using connective tissue (fibrosarcoma) cells; format: cell-based; conditions: 4 μM FITC-conjugated CPP, one hour
# Description: as §1
# SH-SY5Y cells = assay: Cell penetration efficiency in human neuroblastoma cells, 4 μM, flow cytometry; format: cell-based; conditions: one hour; for cell permeability compared with TAT: 4 μM FITC-conjugated CPP, flow cytometry; for Score / Score/TAT: 4 μM FITC-conjugated peptide; for Score: intracellular fluorescence by flow cytometry; for Score/TAT: ratio to FITC-conjugated TAT
# Description: The cell penetration efficiency of the cationic CPPs selected in Example 1 was evaluated in neuroblastoma. In further detail, SH-SYSY cells, which is a human neuroblastoma cell line, were seeded in 24-well plates to have a cell density of 1×10^7 cells/well, and cultured in 10% FBS-added DMEM under conditions of 37° C. and 5% CO2 for 24 hours. In addition, the cells were treated with 4 μM each of FITC-conjugated CPPs (C12, C14, C16, C31, C52, and C67), or FITC-conjugated TAT, and incubated for one hour. After the termination of the incubation, the cells were transferred to a sterile tube using 0.25% trypsin and centrifuged to remove the medium. Afterward, the cells were washed with 500 μL of D-PBS twice to completely remove the medium, and finally, resuspended in 400 μL of D-PBS and intracellular fluorescence was measured by flow cytometry (FACSCanto II).
# as §2, §1
# HEK293T cell line = assay: Cell penetration efficiency using kidney cells; format: cell-based; conditions: 4 μM FITC-conjugated CPP, one hour
# Description: as §1
# monocytes = assay: Cell penetration efficiency using monocytes; format: cell-based; conditions: 4 μM FITC-conjugated CPP, one hour
# Description: as §1
# HeLa cell line = assay: Cell penetration efficiency using cervical cancer cells; format: cell-based; conditions: 4 μM FITC-conjugated CPP, one hour
# Description: as §1
# macrophages = assay: Cell penetration efficiency using macrophages; format: cell-based; conditions: macrophages differentiated from THP1 cells, 4 μM FITC-conjugated CPP, one hour
# Description: as §1, with “II). Macrophages were used by inducing differentiation from THP1 cells. Specifically, the THP-1 cells were aliquoted on a cover glass laid on a 24-well plate to have a density of 6×10^4 cells/well, and after the addition of 100 ng/mL of phorbol 12-myristate 13-acetate (PMA), the cells were incubated for 48 hours to induce the differentiation into macrophages. After 48 hours, the cells were washed with Dulbecco's phosphate buffered saline (DPBS) to perform an experiment.” for “II).”
Sequence,cell permeability compared with TAT (HDF cell line),cell permeability compared with TAT (HGB cell line),cell permeability compared with TAT (A-427 cell line),cell permeability compared with TAT (HepG2 cell line),cell permeability compared with TAT (HaCAT cells),cell permeability compared with TAT (SNU-46 cell line),cell permeability compared with TAT (HT1080 cell line),cell permeability compared with TAT (SH-SY5Y cells),Score (SH-SY5Y cells),Score/TAT (SH-SY5Y cells),cell permeability compared with TAT (HEK293T cell line),cell permeability compared with TAT (monocytes),cell permeability compared with TAT (HeLa cell line),cell permeability compared with TAT (macrophages)
ARLRVILRRRNPKR [C93],higher cell permeability,higher cell permeability,higher cell permeability,higher cell permeability,higher cell permeability,higher cell permeability,higher cell permeability,higher cell permeability,1798,3.464,higher cell permeability,higher cell permeability,higher cell permeability,
IRAKKKKRRRKKKP [C31],higher cell permeability,,higher cell permeability,higher cell permeability,increased cell permeability; also recorded: higher cell permeability,higher cell permeability,higher cell permeability,higher cell permeability,998,1.923,higher cell permeability,,higher cell permeability,higher cell permeability
KPRKKKKKRKNKKI [C12],higher cell permeability,higher cell permeability,higher cell permeability,higher cell permeability,increased cell permeability,higher cell permeability,higher cell permeability,higher cell permeability,2062,3.973,higher cell permeability,,higher cell permeability,higher cell permeability
MPKIRKLKRRKKFR [C79],higher cell permeability,higher cell permeability,,higher cell permeability,higher cell permeability,higher cell permeability,higher cell permeability,higher cell permeability,863,1.663,,higher cell permeability,higher cell permeability,
TKRRKRRLRRRLTP [C52],higher cell permeability,,higher cell permeability,higher cell permeability,increased cell permeability; also recorded: higher cell permeability,higher cell permeability,higher cell permeability,higher cell permeability,1328,2.559,higher cell permeability,,higher cell permeability,higher cell permeability
